Experimental data reported in paper PMC10743653, “Combined In Silico and In Vitro Analyses to Assess the Anticancer Potential of Thiazolidinedione–Thiosemicarbazone Hybrid Molecules” (International Journal of Molecular Sciences, 2023).

System: HepG2 cells
Assay: Cell cycle analysis (image cytometry, DAPI)
Format: cell-based, human
Settings: 24 h at IC50 concentration (2.97 μM); control 6.02 ± 0.21%; mean ± SD
Procedure: HDAC inhibitors, in combination therapy with PPARγ agonists, exert synergistic/additive cytotoxic effects on cancer cells, resulting in proliferation arrest and increased cancerous cell apoptosis.
HepG2 cells were seeded on 6-well culture plates (Corning Inc., NY, USA) at the density of 1 × 10^5 cells/mL and cultured in the respective medium at 37 °C in a humidified atmosphere of 5% CO2. When the cells reached approximately 80–90% confluence, they were treated with 3, at a concentration of IC50, for 24 h. Subsequently, the cells were detached with trypsine, suspended in 250 μL of lysis buffer (Solution 10), supplemented with DAPI (10 μg/mL), and incubated for 5 min at 37 °C. Next, stabilization buffer (Solution 11) was added and the obtained cell suspension was applied on a NC slide and analyzed using a NucleoCounter NC-3000 Image Cytometer equipped with NucleoView software (https://chemometec.com/software/nucleoview/ (accessed on 20 November 2023). Experiments were repeated three times and the measurements in each experiment were run in duplicate.

## O=C(C=C1SC(=O)NC1=O)Oc1ccccc1C=NNC(=S)Nc1cccc(Cl)c1 [TZD–TSC 3]
  Percentage of HepG2 cells in sub-G1 phase: 40.36 ± 3.11%
